How the values were obtained:
[1] = test system: VEGF induced increases in intracellular calcium levels in HUVEC (human umbilical vein endothelial cells); assay: VEGF Stimulated Ca++ signal assay (FLIPR); type: cell-based; settings: VEGF 5 ng/mL; for IC50: 0.01 to 10.0 μM
Method: VEGF Stimulated Ca^++ Signal in vitro
Automated FLIPR (Fluorometric Imaging Plate Reader) technology was used to screen for inhibitors of VEGF induced increases in intracellular calcium levels in fluorescent dye loaded endothelial cells. HUVEC (human umbilical vein endothelial cells) (Clonetics) were seeded in 96-well fibronectin coated black-walled plates overnight @ 37° C./5%CO2. Cells were loaded with calcium indicator Fluo-4 for 45 minutes at 37° C. Cells were washed 4 times (Original Cell Wash, Labsystems) to remove extracellular dye. Test compounds were reconstituted in 100% DMSO and added to the cells to give a final DMSO concentration of 0.1%. For screening, cells were pre-incubated with test agents for 30 minutes, at a single concentration (10 μM) or at concentrations ranging from 0.01 to 10.0 μM followed by VEGF stimulation (5 ng/mL). Changes in fluorescence at 516 nm were measured simultaneously in all 96 wells using a cooled CCD camera. Data were generated by determining max-min fluorescence levels for unstimulated, stimulated, and drug treated samples. IC50 values for test compounds were calculated from % inhibition of VEGF stimulated responses in the absence of inhibitor.

[2] = target: T1, cytoplasmic domain of the human VEGF receptor (VEGFR-2) (Homo sapiens, UniProt P35968); assay: KDR Assay; type: biochemical; settings: His-VEGFR-2, 3.6 μM ATP, poly-Glu-Tyr (4:1)
T1 construct: The cytoplasmic domain of the human VEGF receptor (VEGFR-2) was expressed as a Histidine-tagged fusion protein; His tag (Histidine-tagged fusion); made in house; host or cells: insect cells (engineered baculovirus)
Method: The cytoplasmic domain of the human VEGF receptor (VEGFR-2) was expressed as a Histidine-tagged fusion protein following infection of insect cells using an engineered baculovirus. His-VEGFR-2 was purified to homogeneity, as determined by SDS-PAGE, using nickel resin chromatography. Kinase assays were performed in 96 well microtiter plates that were coated overnight with 30 μg of poly-Glu-Tyr (4:1) in 10 mM Phosphate Buffered Saline (PBS), pH 7.2-7.4. The plates were incubated with 1% BSA and then washed four times with PBS prior to starting the reaction. Reactions were carried out in 120 μL reaction volumes containing 3.6 μM ATP in kinase buffer (50 mM Hepes buffer pH 7.4, 20 mM MgCl2, 0.1 mM MnCl2 and 0.2 mM Na3VO4). Test compounds were reconstituted in 100% DMSO and added to the reaction to give a final DMSO concentration of 5%. Reactions were initiated by the addition 0.5 ng of purified protein. Following a ten minute incubation at 25° C., the reactions were washed four times with PBS containing 0.05% Tween-20. 100 μl of a monoclonal anti-phosphotyrosine antibody-peroxidase conjugate was diluted 1:10000 in PBS-Tween-20 and added to the wells for 30 minutes. Following four washes with PBS-Tween-20, 100 μl of 0-Phenylenediamine Dihydrochloride in Phosphate-citrate buffer, containing urea hydrogen peroxide, was added to the wells for 7 minutes as a colorimetric substrate for the peroxidase. The reaction was terminated by the addition of 100 μl of 2.5N H2SO4 to each well and read using a microplate ELISA reader set at 492 nm. IC50 values for compound inhibition were calculated directly from graphs of optical density (arbitrary units) versus compound concentration following subtraction of blank values.

[3] = Homo sapiens, 10 μM, 30 min pre-incubation

T1 sequence (P35968 786-1356 limits assumed): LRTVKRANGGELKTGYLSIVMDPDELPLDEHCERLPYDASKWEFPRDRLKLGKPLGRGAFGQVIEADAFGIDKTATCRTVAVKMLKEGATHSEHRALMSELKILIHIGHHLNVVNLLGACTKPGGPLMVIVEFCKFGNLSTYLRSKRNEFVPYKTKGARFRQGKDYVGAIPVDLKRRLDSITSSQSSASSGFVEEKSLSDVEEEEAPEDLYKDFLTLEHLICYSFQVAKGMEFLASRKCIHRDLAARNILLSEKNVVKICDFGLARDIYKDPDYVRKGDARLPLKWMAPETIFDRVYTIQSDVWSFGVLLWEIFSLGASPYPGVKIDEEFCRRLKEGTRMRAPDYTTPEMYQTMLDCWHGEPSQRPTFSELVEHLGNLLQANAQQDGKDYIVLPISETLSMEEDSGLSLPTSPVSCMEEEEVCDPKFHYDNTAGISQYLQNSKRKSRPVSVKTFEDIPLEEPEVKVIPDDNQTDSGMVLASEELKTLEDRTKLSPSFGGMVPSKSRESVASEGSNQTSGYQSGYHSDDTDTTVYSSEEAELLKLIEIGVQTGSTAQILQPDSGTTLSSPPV

Molecule	inhibition at 10 µM [1, 3] [%]	IC50 ([1]; Homo sapiens) [nM]	IC50 [2] [nM]	other results
Cc1cc(NC=C2C(=O)Nc3ccccc32)n[nH]1 [Example 23, 3-[(5-Methyl-1H-pyrazol-3-ylamino)-methylene]-1,3-dihydro-indol-2-one]	94.7	≤ 1000	370	IC50 [1]: 900 nM
COc1ccc(-c2c(C)n[nH]c2NC=C2C(=O)Nc3ccccc32)cc1OC [Example 16, 3-{[4-(3,4-Dimethoxy-phenyl)-5-methyl-2H-pyrazol-3-ylamino]-methylene}-1,3-dihydro-indol-2-one]	-1.47			
Cc1ccc(-c2cc(NC=C3C(=O)Nc4ccccc43)n[nH]2)cc1 [Example 3, 3-[(5-P-Tolyl-1H-pyrazol-3-ylamino)-methylene]-1,3-dihydro-indol-2-one]	74	2440	840	
O=C1Nc2ccccc2C1=CNc1cc(Cc2ccccc2)n[nH]1 [Example 40, 3-[(5-Benzyl-2H-pyrazol-3-ylamino)-methylene]-1,3-dihydro-indol-2-one]	-0.03			
Cc1cc(NC=C2C(=O)Nc3cc(F)ccc32)no1 [Example 48, 6-Fluoro-3-[(5-methyl-isoxazol-3-ylamino)-methylene]-1,3-dihydro-indol-2-one]		960	1390	
CN(C)c1ccc(-c2cc(NC=C3C(=O)Nc4ccccc43)[nH]n2)cc1 [Example 35, 3-{[5-(4-Dimethylamino-phenyl)-2H-pyrazol-3-ylamino]-methylene}-1,3-dihydro-indol-2-one]	93	3060	3490	
O=C1Nc2cc(F)ccc2C1=CNc1cc(-c2ccccc2)[nH]n1 [Example 51, 6-Fluoro-3-[(5-phenyl-1H-pyrazol-3-ylamino)-methylene]-1,3-dihydro-indol-2-one]		2320	1210	
COc1ccccc1-c1cc(NC=C2C(=O)Nc3ccccc32)[nH]n1 [Example 37, 3-{[5-(2-Methoxy-phenyl)-2H-pyrazol-3-ylamino]-methylene}-1,3-dihydro-indol-2-one]	13.6		12700	
O=C1Nc2ccc(Cl)cc2C1=CNc1cc(-c2ccccc2)[nH]n1 [Example 14, 5-Chloro-3-[(5-phenyl-1H-pyrazol-3-ylamino)-methylene]-1,3-dihydro-indol-2-one]	27.4			
Cc1onc(NC=C2C(=O)Nc3ccccc32)c1Br [Example 42, 3-[(4-Bromo-5-methyl-isoxazol-3-ylamino)-methylene]-1,3-dihydro-indol-2-one]	0.3		1910	
Cc1cc(NC=C2C(=O)Nc3cc(F)ccc32)n[nH]1 [Example 49, 6-Fluoro-3-[(5-methyl-1H-pyrazol-3-ylamino)-methylene]-1,3-dihydro-indol-2-one]			570	
CC(C)(C)c1cc(NC=C2C(=O)Nc3ccccc32)n[nH]1 [Example 22, 3-[(5-tert-Butyl-1H-pyrazol-3-ylamino)-methylene]-1,3-dihydro-indol-2-one]	98.3	6090	5780	
Cc1oc(C(C)(C)C)cc1-c1cc(NC=C2C(=O)Nc3cc(F)ccc32)[nH]n1 [Example 52, 3-{[5-(5-tert-Butyl-2-methyl-furan-3-yl)-2H-pyrazol-3-ylamino]-methylene}-6-fluoro-1,3-dihydro-indol-2-one]		3400	82300	
O=C1Nc2ccc(Cl)cc2C1=CNc1cc[nH]n1 [Example 9, 5-Chloro-3-[(1H-pyrazol-3-ylamino)-methylene]-1,3-dihydro-indol-2-one]	90	6140	1130	
O=C1Nc2ccc(F)cc2C1=CNc1cc(-c2ccco2)[nH]n1 [Example 27, 5-Fluoro-3-[(5-furan-2-yl-1H-pyrazol-3-ylamino)-methylene]-1,3-dihydro-indol-2-one]	98.6	≤ 1000	530	IC50 [1]: 1050 nM
O=C1Nc2ccccc2C1=CNc1n[nH]cc1Br [Example 21, 3-[(4-Bromo-1H-pyrazol-3-ylamino)-methylene]-1,3-dihydro-indol-2-one]	32.1			

Molecule	inhibition at 10 µM [1, 3] [%]	IC50 ([1]; Homo sapiens) [nM]	IC50 [2] [nM]	other results
Cc1ccc(-c2cc(NC=C3C(=O)Nc4ccccc43)[nH]n2)c(C)c1 [Example 34, 3-{[5-(2,4-Dimethyl-phenyl)2H-pyrazol-3-ylamino]-methylene}-1,3-dihydro-indol-2-one]	58.8	7640		
CSc1[nH]nc(NC=C2C(=O)Nc3ccccc32)c1C#N [Example 18, 5-Methylsulfanyl-3-[(2-oxo-1,2-dihydro-indol-3-ylidenemethyl)-amino]-1H-pyrazole-4-carbonitrile]	14.1			
Cc1cc(C)c2c(NC=C3C(=O)Nc4ccccc43)n[nH]c2n1 [Example 25, 3-[(4,6-Dimethyl-1H-pyrazolo[3,4-b]pyridin-3-ylamino)-methylene]-1,3-dihydro-indol-2-one]	15.1			
Cc1cccc(Cc2cc(NC=C3C(=O)Nc4ccccc43)[nH]n2)c1 [Example 39, 3-{[5-(3-Methyl-benzyl)-2H-pyrazol-3-ylamino]-methylene}-1,3-dihydro-indol-2-one]	-12.6			
Cc1cccc2c1C(=CNc1n[nH]c(-c3ccccc3)c1Br)C(=O)N2 [Example 12, 3-[(4-Bromo-5-phenyl-1H-pyrazol-3-ylamino)-methylene]-4-methyl-1,3-dihydro-indol-2-one]	-12.9			
COc1ccc(-c2cc(NC=C3C(=O)Nc4ccccc43)[nH]n2)cc1 [Example 30, 3-{[5-(4-Methoxy-phenyl)2H-pyrazol-3-ylamino]-methylene}-1,3-dihydro-indol-2-one]	12.3			
3-[(1-H-Pyrazol-3 ylamino)methylene]-1,3-dihydro-indol-2-one [Example 1]				VEGF Stimulated Ca++ signal assay % inhibition @10 μM ([1]; 10 μM, 30 min pre-incubation): 92.8%; IC50 [1]: 3000 nM
COC(=O)c1ccc(-c2cc(NC=C3C(=O)Nc4ccccc43)n[nH]2)cc1 [Example 24, 4-{5-[(2-Oxo-1,2-dihydro-indol-3-ylidenemethyl)-amino]-2H-pyrazol-3-}-benzoic acid methyl ester]	56.9	≥ 10000		
O=C1Nc2ccccc2C1=CNc1n[nH]cc1C(=O)O [Example 19, 3-[(2-Oxo-1,2-dihydro-indol-3-ylidenemethyl)-amino]-1H-pyrazole-4-carboxylic acid]	-0.89			
N#Cc1c[nH]nc1NC=C1C(=O)Nc2ccccc21 [Example 20, 3-[(2-Oxo-1,2-dihydro-indol-3-ylidenemethyl)-amino]-1H-pyrazole-4-carbonitrile]	35.8			
O=C1Nc2ccccc2C1=CNc1cc(-c2cc(OCc3ccccc3)cc(OCc3ccccc3)c2)n[nH]1 [Example 31, 3-{[5-(3,5-Bis-benzyloxy-phenyl)-2H-pyrazol-3-ylamino]-methylene}-1,3-dihydro-indol-2-one]	-12.9			
O=C1Nc2ccc(Cl)cc2C1=CNc1n[nH]c(-c2ccccc2)c1Br [Example 13, 3-[(4-Bromo-5-phenyl-1H-pyrazol-3-ylamino)-methylene]-5chloro-1,3-dihydro-indol-2-one]	-19.1			
CCOC(=O)c1c[nH]nc1NC=C1C(=O)Nc2ccccc21 [Example 17, 3-[(2-Oxo-1,2-dihydro-indol-3-ylidenemethyl)-amino]-1H-pyrazole-4-carboxylic acid ethyl ester]	27.2			
O=C1Nc2ccccc2C1=CNc1n[nH]c2cccc(F)c12 [Example 15, 3-[(4-Fluoro-1H-indazol-3-ylamino)-methylene]-1,3-dihydro-indol-2-one]	6.16			
O=C1Nc2ccccc2C1=CNc1n[nH]c(-c2ccccc2)c1Br [Example 11, 3-[(4-Bromo-5-phenyl-1H-pyrazol-3-ylamino)-methylene]-1,3-dihydro-indol-2-one]	23.4			

Source: US6559173B1, “3-(heteroarylamino)methylene-1,3-dihydro-2H-indol-2-ones as kinase inhibitors” (Allergan, Inc., priority 2001, dated 2003)
